One assay concerns HIV-1 NL4.3 or IIIB. Description: Inhibition of HIV-1 (NL4.3 or IIIB, CXCR4 using) replication in MT-4 cells, MTT viability. It is filed as cell-based. Conditions: Human immunodeficiency virus 1, IIIB, MT4, concentration protecting 50% of virus-infected cells against viral cytopathicity. The procedure:
Assay for Inhibition of HIV-1 (NL4.3) Replication in MT-4 Cells Inhibition of HIV-1 NL4.3 (or IIIB, CXCR4 using) replication assays were performed as previously described (Bridger et al. J. Med. Chem. 1999, 42, 3971-3981; De […] et al. Proc. Natl. Acad. Sci, 1992, 89, 5286-5290; De […] et al. Antimicrob. Agents Chemother. 1994, 38, 668-674; Bridger et al. J. Med. Chem. 1995, 38, 366-378; Schols et al. J. Exp. Med., 1997, 186, 1383-1388). Anti-HIV activity and cytotoxicity measurements were carried out in parallel. They were based on the viability of MT-4 cells that had been infected with HIV in the presence of various concentrations of the test compounds. After the MT-4 cells were allowed to proliferate for 5 days, the number of viable cells was quantified by a tetrazolium-based colorimetric 3-(4,5-dimethylthiazol-2-yl)-2,5-diphenyltetrazolium bromide (MTT) procedure in 96-well microtrays. In all of these assays, viral input (viral multiplicity of infection, MOI) was 0.01, or 100 times the 50% cell culture infective dose (CCID50). The EC50 was defined as the concentration required to protect 50% of the virus-infected cells against viral cytopathicity.

In assay [1] the test system is SDF-1 induced Ca flux in SUP-T1 cells. Description: Inhibition of chemokine (SDF-1) induced Ca flux measured on a FLIPR. It is filed as cell-based. The following applies: Homo sapiens. The procedure:
Inhibition of Chemokine Induced Ca Flux Measured on a FLIPR (Molecular Devices) Loading dye: Fluo-3, AM (Molecular Probes F-1241) is dissolved in anhydrous DMSO and stored frozen in aliquots. To increase the solubility of the dye in the loading medium, 10% (w/v) pluronic acid (Molecular Probes F-127) is added to the Fluo-3 stock solution immediately before use. HBSS+20 mM Hepes buffer+0.2% BSA, pH 7.4. HBSS 10× [(w/o phenol red and sodium bicarbonate (Gibco 14 065–049)]; Hepes buffer 1M (Gibco 15 630–056), BSA (Sigma A3675). The flux buffer is vacuum-filtered and stored refrigerated for a maximum of 5 days. Before use in the experiment, the buffer is warmed at 37° C. in a waterbath. The test compounds were diluted in flux buffer to the desired concentration and added to 4 wells of a black microplate (4 parallel measurements per compound). The following control wells were used: 100% response control (no inhibition), flux buffer was added; 100% inhibition control: chemokine was added at 5-times the concentration required to induce a Ca flux. The chemokines are diluted in flux buffer to concentrations that are 4-fold higher than the desired concentrations required for stimulation of the cells (i.e. 2.5 nM for SDF-1[…] and 0.6 nM for RANTES). The chemokines were added to untreated 96-well Sero well compound plates (International Medical, Sterilin code 611F96). In the negative control well's (baseline monitoring), flux buffer is added instead of chemokine. As a positive control to check for dye loading efficiency, 20 μM digitonin (final concentration) was also included. The agonist plate was incubated in the FLIPR (37° C.) for 15–30 min. Cell Loading Protocol for Measuring Inhibition of SDF-1[…] Induced Ca Flux in SUP-T1 Cells. SUP-T1 cells were centrifuged at room temperature (RT) and re-suspended in loading medium (RPMI-1640 containing 2% FBS and 4 μM Fluo-3, AM). The cells were incubate at room temperature for 45 min. then washed twice in flux buffer then incubated in flux buffer at room temperature for 10 min. The cells were centrifuged and re-suspended in flux buffer at a density of 3×10^6 cells per mL. A 100 uL aliquot of the cell suspension (3×10^5 cells) was added to each well of a black microplate (Costar 3603), which already contains 50 uL of a solution of the test compound (at concentrations that are 3-fold higher than the desired final compound concentrations). The microplate is then gently centrifuged at room temperature. Homogeneous spreading of the cells on the bottom of the microplate wells was then confirmed with a microscope and the microplate was incubated in the FLIPR (37° C.) for 10 min. prior to testing. Fluorescence Measurements as a Function of Time on the FLIPR The FLIPR settings (camera exposure time and laser power) are adjusted to obtain initial fluorescence values between 8,000 and 10,000 units. After monitoring a 20 second-baseline, the agonist (chemokine) (50 uL) is added by automatic pipettor with black pipette tips. Fluorescence is measured simultaneously in all wells of the microplate every 2 seconds (first 2 min) and thereafter every 6 seconds (additional 2 min). The average ca-flux measured in each set of 4 identical wells (one test compound) was calculated by the FLIPR software.

Molecules are shown by their SMILES. A value given as a limit tells only on which side of the number the result lay.

Data on 19 compounds can be found in patent US7084155B2, “Chemokine receptor binding heterocyclic compounds” (AnorMED, priority 2000, dated 2006).

`Fc1ccc2nc(CN(Cc3ccc(CNCc4ccccn4)cc3)C3CCCc4cccnc43)[nH]c2c1` (stereo not shown) [Example 3, N-(2-pyridinylmethyl)-N′-(5-fluoro-1-H-benzimidazol-2-ylmethyl)-N′-(5,6,7,8-tetrahydro-8-quinolinyl)-1,4-benzenedimethanamine]: the EC50 (usually the concentration at which the effect is half-maximal) in the assay on HIV-1 NL4.3 or IIIB is less than 20 µg/mL. The inhibition (in general, the share of the control response that was lost under treatment) at 20 µg/mL in assay [1] is greater than 20%.

In the assay on HIV-1 NL4.3 or IIIB, `Cc1ccc2nc(CN(Cc3ccc(CNCc4ccccn4)cc3)C3CCCc4cccnc43)[nH]c2c1C` (stereo not shown) [Example 4, N-(2-pyridinylmethyl)-N′-(4,5-dimethyl-1-H-benzimidazol-2-ylmethyl)-N′-(5,6,7,8-tetrahydro-8-quinolinyl)-1,4-benzenedimethanamine] came in with an EC50 of less than 20 µg/mL. The inhibition at 20 µg/mL in assay [1] is greater than 20%.

As to `FC(F)(F)c1cccc2nc(CN(Cc3ccc(CNCc4ccccn4)cc3)C3CCCc4cccnc43)[nH]c12` (stereo not shown) [Example 5, N-(2-pyridinylmethyl)-N′-(4-trifluoromethyl-1-H-benzimidazol-2-ylmethyl)-N′-(5,6,7,8-tetrahydro-8-quinolinyl)-1,4-benzenedimethanamine], in the assay on HIV-1 NL4.3 or IIIB, the EC50 is less than 20 µg/mL. The same compound displayed an inhibition at 20 µg/mL in assay [1] greater than 20%.

The compound `COC(=O)c1ccc2[nH]c(CN(Cc3ccc(CNCc4ccccn4)cc3)C3CCCc4cccnc43)nc2c1` (stereo not shown) [Example 6, N-(2-pyridinylmethyl)-N′-(5-carboxymethyl-1-H-benzimidazol-2-ylmethyl)-N′-(5,6,7,8-tetrahydro-8-quinolinyl)-1,4-benzenedimethanamine] registered an EC50 with HIV-1 NL4.3 or IIIB of less than 20 µg/mL. The inhibition at 20 µg/mL in assay [1] was greater than 20%.

`Oc1cccc2[nH]c(CN(Cc3ccc(CNCc4ccccn4)cc3)C3CCCc4cccnc43)nc12` (stereo not shown) [Example 7, N-(2-pyridinylmethyl)-N′-(4-hydroxy-1-H-benzimidazol-2-ylmethyl)-N′-(5,6,7,8-tetrahydro-8-quinolinyl)-1,4-benzenedimethanamine] had an EC50 in the assay on HIV-1 NL4.3 or IIIB of less than 20 µg/mL. For the same compound, the inhibition at 20 µg/mL in assay [1] was greater than 20%.

In the case of `O=C(c1ccccc1)c1ccc2[nH]c(CN(Cc3ccc(CNCc4ccccn4)cc3)C3CCCc4cccnc43)nc2c1` (stereo not shown) [Example 9, N-(2-pyridinylmethyl)-N′-(5-benzoyl-1H-benzimidazol-2-ylmethyl)-N′-(5,6,7,8-tetrahydro-8-quinolinyl)-1,4-benzenedimethanamine], in the assay with HIV-1 NL4.3 or IIIB, the EC50 is less than 20 µg/mL. In assay [1], this compound showed an inhibition at 20 µg/mL greater than 20%.

Consider `c1ccc(CNCc2ccc(CN(Cc3nc4cccnc4[nH]3)C3CCCc4cccnc43)cc2)nc1` (stereo not shown) [Example 10, N-(2-pyridinylmethyl)-N′-[(1H)-4-azabenzimidazol-2-ylmethyl]-N′-(5,6,7,8-tetrahydro-8-quinolinyl)-1,4-benzenedimethanamine], for which the EC50 in the assay on HIV-1 NL4.3 or IIIB was less than 20 µg/mL. The compound further had an inhibition at 20 µg/mL in assay [1] greater than 20%.

On to `Clc1ccc2[nH]c(CN(Cc3ccc(CNCc4ccccn4)cc3)C3CCCc4cccnc43)nc2c1` (stereo not shown) [Example 11, N-(2-pyridinylmethyl)-N′-[5-chloro-1H-benzimidazol-2-ylmethyl]-N′-(5,6,7,8-tetrahydro-8-quinolinyl)-1,4-benzenedimethanamine], for which the EC50 with HIV-1 NL4.3 or IIIB is less than 20 µg/mL. In addition, the inhibition at 20 µg/mL in assay [1] is greater than 20%.

Compound `COc1ccc2nc(CN(Cc3ccc(CNCc4ccccn4)cc3)C3CCCc4cccnc43)[nH]c2c1` (stereo not shown) [Example 12, N-(2-pyridinylmethyl)-N′-[5-methoxy-1H-benzimidazol-2-ylmethyl]-N′-(5,6,7,8-tetrahydro-8-quinolinyl)-1,4-benzenedimethanamine] yielded an EC50 in the assay with HIV-1 NL4.3 or IIIB of less than 20 µg/mL. For the same compound, in assay [1], the inhibition at 20 µg/mL was greater than 20%.

In the case of `COc1ccc(OC)c2[nH]c(CN(Cc3ccc(CNCc4ccccn4)cc3)C3CCCc4cccnc43)nc12` (stereo not shown) [Example 15, N-(2-pyridinylmethyl)-N′-[4,7-dimethoxy-1H-benzimidazol-2-ylmethyl]-N′-(5,6,7,8-tetrahydro-8-quinolinyl)-1,4-benzenedimethanamine], the EC50 in the assay on HIV-1 NL4.3 or IIIB was less than 20 µg/mL. The compound further had an inhibition at 20 µg/mL in assay [1] greater than 20%.

On to `c1ccc(CNCc2ccc(CN(Cc3nc4ccccc4s3)C3CCCc4cccnc43)cc2)nc1` (stereo not shown) [Example 16, N-(2-pyridinylmethyl)-N′-(benzothiazol-2-ylmethyl)-N′-(5,6,7,8-tetrahydro-8-quinolinyl)-1,4-benzenedimethanamine], for which the EC50 with HIV-1 NL4.3 or IIIB is less than 20 µg/mL.

As for `Cc1cccc2nc(CN(Cc3ccc(CNCc4ccccn4)cc3)C3CCCc4cccnc43)[nH]c12` (stereo not shown) [Example 20, N-(2-pyridinylmethyl)-N′-(4-methylbenzimidazol-2-ylmethyl)-N′-(5,6,7,8-tetrahydro-8-quinolinyl)-1,4-benzenedimethanamine], in the assay with HIV-1 NL4.3 or IIIB, the EC50 is less than 20 µg/mL. For the same compound, in assay [1], the inhibition at 20 µg/mL is greater than 20%.

In turn, `Fc1cccc2nc(CN(Cc3ccc(CNCc4ccccn4)cc3)C3CCCc4cccnc43)[nH]c12` (stereo not shown) [Example 21, N-(2-pyridinylmethyl)-N′-(4-fluorobenzimidazol-2-ylmethyl)-N′-(5,6,7,8-tetrahydro-8-quinolinyl)-1,4-benzenedimethanamine] came in with an EC50 in the assay on HIV-1 NL4.3 or IIIB of less than 20 µg/mL. In assay [1], this compound displayed an inhibition at 20 µg/mL greater than 20%.

For the compound `Brc1cccc2nc(CN(Cc3ccc(CNCc4ccccn4)cc3)C3CCCc4cccnc43)[nH]c12` (stereo not shown) [Example 22, N-(2-pyridinylmethyl)-N′-(4-bromobenzimidazol-2-ylmethyl)-N′-(5,6,7,8-tetrahydro-8-quinolinyl)-1,4-benzenedimethanamine], in the assay on HIV-1 NL4.3 or IIIB, the EC50 is less than 20 µg/mL. The inhibition at 20 µg/mL in assay [1] was greater than 20%.

`c1ccc(CNCc2ccc(CN(CCc3nc4ccccc4[nH]3)C3CCCc4cccnc43)cc2)nc1` (stereo not shown) [Example 23] came in with an EC50 in the assay with HIV-1 NL4.3 or IIIB of less than 20 µg/mL. For the same compound, in assay [1], the inhibition at 20 µg/mL is greater than 20%.

With `c1ccc(CNCc2ccc(CN(CCCc3nc4ccccc4[nH]3)C3CCCc4cccnc43)cc2)nc1` (stereo not shown) [Example 24, N-(2-pyridinylmethyl)-N′-[3-(1H-benzimidazol-2-yl)prop-1-yl]-N′-(5,6,7,8-tetrahydro-8-quinolinyl)-1,4-benzenedimethanamine], the EC50 with HIV-1 NL4.3 or IIIB is less than 20 µg/mL. Also, in assay [1], the inhibition at 20 µg/mL was greater than 20%.

Regarding `CCOc1cccnc1CNCc1ccc(CN(Cc2nc3ccccc3[nH]2)C2CCCc3cccnc32)cc1` (stereo not shown) [Example 69, N-(3-ethoxy-2-pyridinylmethyl)-N′-(1H-benzimidazol-2-ylmethyl)-N′-(5,6,7,8-tetrahydro-8-quinolinyl)-1,4-benzenedimethanamine], in the assay on HIV-1 NL4.3 or IIIB, the EC50 was less than 20 µg/mL.

In turn, `[O-][n+]1ccccc1CNCc1ccc(CN(Cc2nc3ccccc3[nH]2)C2CCCc3cccnc32)cc1` (stereo not shown) [Example 70, N-(1-oxo-2-pyridinylmethyl)-N′-(1H-benzimidazol-2-ylmethyl)-N′-(5,6,7,8-tetrahydro-8-quinolinyl)-1,4-benzenedimethanamine] displayed an EC50 in the assay on HIV-1 NL4.3 or IIIB of less than 20 µg/mL.

On to `c1ccc(N[C@H]2CCCC[C@@H]2N(Cc2ccc(CNCc3ccccn3)cc2)Cc2nc3ccccc3[nH]2)cc1` [Example 131], for which the 50% effective concentration (EC50) in the assay with HIV-1 NL4.3 or IIIB is less than 20 µg/mL.
